From patent US5006515A, “Pharmaceuticals, phosphorus-containing 2-isoxazolines and isoxazoles contained therein” (Hoechst Aktiengesellschaft, priority 1987, dated 1991)
Like-named read-outs stand apart in the source and are kept apart here.

Legend:
[1] = Acute toxicity; parameters: species or system mice; settings: mouse, in vivo, single dose, mortality within 7 days
Experimental: The LD50 values were determined by the standard method via the mortality occurring within 7 days in NMRI (Naval Medical Research Institute) mice (6 animals per dose) after a single intraperitoneal (i.p.) or intravenous (i.v.) dose.

[2] = tested on: active Arthus reaction; assay: Active Arthus reaction in the rat; assay type: in vivo, Sprague-Dawley rats
Experimental: The experimental animals used were female and male Sprague-Dawley rats with a body weight between 80 and 100 g which received subcutaneous injections into the tail-head of 0.5 ml of an emulsion of pertussis vaccine and ovalbumin in liquid paraffin. After two weeks, the rats were divided into groups each of 8 animals. 24 hours and 1 hour before induction of the Arthus reaction by injection of 0.1 ml of a 0.4% strength ovalbumin solution into the right hind paw, the particular test substance or the pure vehicle (positive control) was administered orally, sodium chloride solution was injected into the left paw. One group of unsensitized animals (negative control group) was likewise treated with ovalbumin in order to be able to rule out nonspecific reactions to the protein. The parameter used for measuring the action of the product was the percentage change in the increase in paw volume compared with that in the control group which was sensitized but untreated (positive control) 4 hours after ovalbumin challenge, when the swelling had reached its maximum.

[3] = biological target: leucine aminopeptidase; assay: Inhibition of leucine aminopeptidase; assay type: biochemical; settings: substrate L-leucine 4-nitroanilide
Experimental: The activity of the enzyme aminopeptidase B was determined photometrically using the substrate L-lysine 2-naphthylamide at room temperature. […] In the same way, the inhibition of leucine aminopeptidase was investigated using L-leucine 4-nitroanilide as enzyme substrate. The IC50 values are compiled in Table 6.

[4] = Rattus norvegicus, po, 4 h, oral dose 50 mg/kg, 4 h after ovalbumin challenge
[5] = Rattus norvegicus, po, 4 h, read-out: Active Arthus reaction % change
[6] = Rattus norvegicus, po, 4 h, oral dose 35 mg/kg, 4 h after ovalbumin challenge, read-out: Active Arthus reaction % change

With `O=P(O)(O)c1cc(-c2ccncc2)no1` [Example 51] the LD50 at 168 h ([1]; iv) was greater than 200 mg/kg and the change in vivo at 50 mg/kg [2, 4] was 17%.

Work on `O=P(O)(O)C1CC(C=Cc2ccccc2)=NO1` (centres unmarked) [Example 52] yielded a change in vivo at 50 mg/kg [2, 4] of -15%.

With `CCOP(=O)(C1CC(c2ccccc2)=NO1)N1CCCC1` (centres unmarked) [Example 55, 3-Phenyl-2-isoxazolin-5-yl(P-ethoxy)phosphonic acid pyrrolidide] the LD50 at 168 h ([1]; iv) was greater than 200 mg/kg and the change in vivo at 70 mg/kg ([2]; Rattus norvegicus, oral dose 70 mg/kg, 4 h after ovalbumin challenge, read-out: Active Arthus reaction % change) was -23%.

`CCOP(=O)(NCC(=O)OCc1ccccc1)C1CC(c2ccccc2)=NO1` (centres unmarked) [Example 56, N-[3-Phenyl-2-isoxazolin-5-yl(P-ethoxy)phosphonoyl]glycine benzyl ester] showed an LD50 at 168 h ([1]; ip) greater than 1200 mg/kg and a change in vivo at 100 mg/kg ([2]; Rattus norvegicus, oral dose 100 mg/kg, 4 h after ovalbumin challenge, read-out: Active Arthus reaction % change) of 35%.

`CN(C)P(=O)(C1CC(c2ccccc2)=NO1)N(C)C` (centres unmarked) [Example 59, 3-Phenyl-2-isoxazolin-5-ylphosphonic tetra methyldiamide] showed an LD50 at 168 h ([1]; iv) greater than 200 mg/kg and a change in vivo at 50 mg/kg [2, 4] of -25%.

`CC(C)(C)C1=NOC(P(C)(=O)O)C1` (centres unmarked) [Example 64, 3-tert.Butyl-2-isoxazolin-5-yl(P-methyl)phosphinic acid] showed an LD50 at 168 h ([1]; iv) greater than 200 mg/kg and a change in vivo at 20 mg/kg [2, 5] of -59%.

With `COP(=O)(OC)C1CC(c2ccc(F)cc2)=NO1` (centres unmarked) [Example 65] the LD50 at 168 h ([1]; ip) was greater than 300 mg/kg.

Compound `COC(=O)c1ccc(C2=NOC(P(=O)(OC)OC)C2)cc1` (centres unmarked) [Example 66, Dimethyl 3-(4-methoxycarbonylphenyl)-2-isoxazolin-5-ylphosphonate] has a change in vivo at 50 mg/kg ([2]; Rattus norvegicus, oral dose 50 mg/kg, 4 h after ovalbumin challenge) of -28%.

In the case of `O=P(O)(O)C1CC(c2ccc(F)cc2)=NO1` (centres unmarked) [Example 67, 3-(4-Fluorophenyl)-2-isoxazolin-5-ylphosphonic acid], the change in vivo at 50 mg/kg [2, 4] is reported as -35% and the “Leucine aminopeptidase IC50” value [3] is reported as 57 μug/ml.

In the case of `O=[N+]([O-])c1ccc(C2=NOC(P(=O)(O)O)C2)cc1` (centres unmarked) [Example 69, 3-(4-Nitrophenyl)-2-isoxazolin-5-ylphosphonic acid], the LD50 at 168 h ([1]; iv) is reported as greater than 100 mg/kg, the change in vivo at 50 mg/kg [2, 4] is reported as -20% and the “Leucine aminopeptidase IC50” value [3] is reported as 27 μug/ml.

For `Br.CN(C)c1ccc(C2=NOC(P(=O)(O)O)C2)cc1` (centres unmarked) [Example 71, 3-(4-Dimethylaminophenyl)-2-isoxazolin-5-ylphosphonic acid hydrobromide], the LD50 at 168 h ([1]; ip) was 150 to 300 mg/kg, the change in vivo at 70 mg/kg [2, 5] was -10% and the “Leucine aminopeptidase IC50” value [3] was 37 μug/ml.

Compound `O=P(O)(O)C1CC(c2ccccc2O)=NO1` (centres unmarked) [Example 73, 3-(2-Hydroxyphenyl)-2-isoxazolin-5-ylphosphonic acid] has an LD50 at 168 h ([1]; ip) of 150 to 300 mg/kg and a change in vivo at 35 mg/kg [2, 6] of -44%.

In the case of `O=P(O)(O)C1CC(c2cccs2)=NO1` (centres unmarked) [Example 75, 3-(2-Thienyl)-2-isoxazolin-5-ylphosphonic acid], the LD50 at 168 h ([1]; iv) is reported as greater than 100 mg/kg, the change in vivo at 35 mg/kg [2, 5] is reported as -26% and the “Leucine aminopeptidase IC50” value [3] is reported as 79 μug/ml.

Compound `CC(C)(C)c1cc(P(=O)(O)O)on1` [Example 77, Diammonium 3-tert.butyl-5-isoxazolylphosphonate] has a change in vivo at 35 mg/kg [2, 5] of -20%.

With `CP(=O)(O)CC1CC(Cl)=NO1` (centres unmarked) [Example 79, 3-Chloro-2-isoxazolin-5-ylmethyl(P-methyl)phosphinic acid] the change in vivo at 70 mg/kg [2, 5] was -24%.

With `O=C(O)c1ccc(C2=NOC(P(=O)(O)O)C2)cc1` (centres unmarked) [Example 87] the change in vivo at 35 mg/kg [2, 6] was -29%.

Compound `O=P(O)(O)C1CC(c2cccnc2)=NO1` (centres unmarked) [Example 88] has a change in vivo at 50 mg/kg [2, 4] of -50%.

With `COP(=O)(OC)C1CC(C(C)(C)O)=NO1` (centres unmarked) [Example 90] the “Active Arthus reaction % change” value ([2]; oral dose 50 mg/kg, 4 h after ovalbumin challenge) was -31%.

Work on `CC(C)(C)C1=NOC(CP(C)(=O)O)C1` (centres unmarked) [Example 99] yielded an LD50 at 168 h ([1]; iv) greater than 100 mg/kg and a change in vivo at 35 mg/kg [2, 5] of -32%.

Work on `CCOC(=O)C1=NOC(P(C)(=O)O)C1` (centres unmarked) [Example 101] yielded an LD50 at 168 h ([1]; iv) greater than 100 mg/kg and a change in vivo at 70 mg/kg [2, 5] of -32%.

`CP(=O)(O)C1CC(C(=O)O)=NO1` (centres unmarked) [Example 102] showed a change in vivo at 35 mg/kg [2, 5] of -35%.

Work on `CP(C)(=O)C1CC(c2ccccn2)=NO1` (centres unmarked) [Example 105] yielded an LD50 at 168 h ([1]; iv) greater than 100 mg/kg and a change in vivo at 35 mg/kg [2, 6] of -23%.
